From ChEMBL document CHEMBL1201862, “PubChem BioAssay data set” (2004)
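These data come from cells grown in 96-well plates and exposed to compound for 48 hours at five concentrations. GI50 is the concentration that inhibits growth by half.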 Active and inactive are the calls of the source. No stated cut-off is given here; in the data, active = GI50 up to about 1.1 µM and inactive = higher.

Columns and labels:
Assay in all cases: NCI-60 cell line screen, 48 h
OVCAR-8 = test system: OVCAR-8
HCT-116 = test system: HCT-116
SW-620 = test system: SW-620
NCI/ADR-RES = test system: NCI/ADR-RES
ACHN = test system: ACHN
Malme-3M = test system: Malme-3M
HL-60 = test system: HL-60
MCF7 = test system: MCF7
786-0 = test system: 786-0
CAKI-1 = test system: CAKI-1
LOX IMVI = test system: LOX IMVI
KM12 = test system: KM12
SF-268 = test system: SF-268
Hs-578T = test system: Hs-578T
SK-OV-3 = test system: SK-OV-3
SK-MEL-28 = test system: SK-MEL-28
RPMI-8226 = test system: RPMI-8226
MDA-MB-231 = test system: MDA-MB-231
TK-10 = test system: TK-10
SF-539 = test system: SF-539
SNB-75 = test system: SNB-75
NCI-H460 = test system: NCI-H460
UACC-257 = test system: UACC-257
UACC-62 = test system: UACC-62
HT-29 = test system: HT-29
RXF 393 = test system: RXF 393
EKVX = test system: EKVX
NCI-H23 = test system: NCI-H23
NCI-H226 = test system: NCI-H226
U-251 = test system: U-251
IGROV-1 = test system: IGROV-1
M14 = test system: M14
SR = test system: SR
CCRF-CEM = test system: CCRF-CEM
OVCAR-3 = test system: OVCAR-3
A549 = test system: A549
SK-MEL-5 = test system: SK-MEL-5
OVCAR-5 = test system: OVCAR-5
SNB-19 = test system: SNB-19
MDA-N = test system: MDA-N
K562 = test system: K562
NCI-H522 = test system: NCI-H522
SF-295 = test system: SF-295
OVCAR-4 = test system: OVCAR-4
HCC 2998 = test system: HCC 2998
HOP-62 = test system: HOP-62
T47D = test system: T47D
HOP-92 = test system: HOP-92
PC-3 = test system: PC-3
COLO 205 = test system: COLO 205
A498 = test system: A498
SK-MEL-2 = test system: SK-MEL-2
SN12C = test system: SN12C
MDA-MB-435 = test system: MDA-MB-435
BT-549 = test system: BT-549
HCT-15 = test system: HCT-15
UO-31 = test system: UO-31
DU-145 = test system: DU-145
MOLT-4 = test system: MOLT-4

SMILES: CN(C)CC1=Nc2cccc3cccc(c23)N1
- GI50 (OVCAR-8): 33.8 µM (inactive)
- GI50 (HCT-116): 8.15 µM (inactive)
- GI50 (SW-620): 4.08 µM (inactive)
- GI50 (NCI/ADR-RES): 33.7 µM (inactive)
- GI50 (ACHN): 14.9 µM (inactive)
- GI50 (Malme-3M): 22 µM (inactive)
- GI50 (HL-60): 13.2 µM (inactive)
- GI50 (MCF7): 13.1 µM (inactive)
- GI50 (786-0): 12.4 µM (inactive)
- GI50 (CAKI-1): 21.5 µM (inactive)
- GI50 (LOX IMVI): 19.4 µM (inactive)
- GI50 (KM12): 25.6 µM (inactive)
- GI50 (SF-268): 18.9 µM (inactive)
- GI50 (Hs-578T): 34.7 µM (inactive)
- GI50 (SK-OV-3): > 100 µM (inactive)
- GI50 (SK-MEL-28): 22.1 µM (inactive)
- GI50 (RPMI-8226): 3.3 µM (inactive)
- GI50 (MDA-MB-231): 17.8 µM (inactive)
- GI50 (TK-10): 18.4 µM (inactive)
- GI50 (SF-539): 19.8 µM (inactive)
- GI50 (SNB-75): 16.7 µM (inactive)
- GI50 (NCI-H460): 34.3 µM (inactive)
- GI50 (UACC-257): 16.9 µM (inactive)
- GI50 (UACC-62): 16.1 µM (inactive)
- GI50 (HT-29): 22.8 µM (inactive)
- GI50 (RXF 393): 17.9 µM (inactive)
- GI50 (EKVX): 17.2 µM (inactive)
- GI50 (NCI-H23): 22.9 µM (inactive)
- GI50 (NCI-H226): 20.3 µM (inactive)
- GI50 (U-251): 16.8 µM (inactive)
- GI50 (IGROV-1): 18.5 µM (inactive)
- GI50 (M14): 19.5 µM (inactive)
- GI50 (SR): 17.9 µM (inactive)
- GI50 (CCRF-CEM): 0.235 µM (active)
- GI50 (OVCAR-3): 16.4 µM (inactive)
- GI50 (A549): 67.8 µM (inactive)
- GI50 (SK-MEL-5): 15.4 µM (inactive)
- GI50 (OVCAR-5): 17.4 µM (inactive)
- GI50 (SNB-19): > 100 µM (inactive)
- GI50 (MDA-N): 18.4 µM (inactive)
- GI50 (K562): 16.7 µM (inactive)
- GI50 (NCI-H522): 1.89 µM (inactive)
- GI50 (SF-295): > 100 µM (inactive)
- GI50 (OVCAR-4): 13.3 µM (inactive)
- GI50 (HCC 2998): 17.2 µM (inactive)
- GI50 (HOP-62): > 100 µM (inactive)
- GI50 (T47D): 6.11 µM (inactive)
- GI50 (HOP-92): 18.8 µM (inactive)
- GI50 (PC-3): 17 µM (inactive)
- GI50 (COLO 205): 2.95 µM (inactive)
- GI50 (A498): 14.9 µM (inactive)
- GI50 (SK-MEL-2): 17.4 µM (inactive)
- GI50 (SN12C): 16.8 µM (inactive)
- GI50 (MDA-MB-435): 20.2 µM (inactive)
- GI50 (BT-549): 17.6 µM (inactive)
- GI50 (HCT-15): 23.8 µM
- GI50 (UO-31): 9.16 µM (inactive)
- GI50 (DU-145): 17.1 µM (inactive)

SMILES: CC(=O)c1cc2c(Br)cccc2oc1=O
- GI50 (OVCAR-8): > 100 µM (inactive)
- GI50 (HCT-116): 66.7 µM (inactive)
- GI50 (SW-620): > 100 µM (inactive)
- GI50 (NCI/ADR-RES): > 100 µM (inactive)
- GI50 (ACHN): > 100 µM (inactive)
- GI50 (Malme-3M): > 100 µM (inactive)
- GI50 (HL-60): > 100 µM (inactive)
- GI50 (MCF7): > 100 µM (inactive)
- GI50 (786-0): > 100 µM (inactive)
- GI50 (CAKI-1): > 100 µM (inactive)
- GI50 (LOX IMVI): > 100 µM (inactive)
- GI50 (SF-268): 95.5 µM (inactive)
- GI50 (Hs-578T): > 100 µM (inactive)
- GI50 (SK-MEL-28): > 100 µM (inactive)
- GI50 (RPMI-8226): > 100 µM (inactive)
- GI50 (MDA-MB-231): > 100 µM (inactive)
- GI50 (TK-10): > 100 µM (inactive)
- GI50 (SF-539): > 100 µM (inactive)
- GI50 (SNB-75): > 100 µM (inactive)
- GI50 (NCI-H460): > 100 µM (inactive)
- GI50 (UACC-257): > 100 µM (inactive)
- GI50 (UACC-62): > 100 µM (inactive)
- GI50 (HT-29): > 100 µM (inactive)
- GI50 (RXF 393): > 100 µM (inactive)
- GI50 (EKVX): > 100 µM (inactive)
- GI50 (NCI-H23): > 100 µM (inactive)
- GI50 (NCI-H226): > 100 µM (inactive)
- GI50 (U-251): 63.4 µM (inactive)
- GI50 (IGROV-1): > 100 µM (inactive)
- GI50 (M14): > 100 µM (inactive)
- GI50 (SR): 46.8 µM (inactive)
- GI50 (CCRF-CEM): > 100 µM (inactive)
- GI50 (OVCAR-3): > 100 µM (inactive)
- GI50 (A549): > 100 µM (inactive)
- GI50 (SK-MEL-5): > 100 µM (inactive)
- GI50 (OVCAR-5): > 100 µM (inactive)
- GI50 (SNB-19): > 100 µM (inactive)
- GI50 (MDA-N): 52 µM (inactive)
- GI50 (K562): 99.1 µM (inactive)
- GI50 (NCI-H522): > 100 µM (inactive)
- GI50 (SF-295): > 100 µM (inactive)
- GI50 (OVCAR-4): > 100 µM (inactive)
- GI50 (HCC 2998): > 100 µM (inactive)
- GI50 (HOP-62): > 100 µM (inactive)
- GI50 (T47D): > 100 µM (inactive)
- GI50 (HOP-92): > 100 µM (inactive)
- GI50 (MOLT-4): > 100 µM (inactive)
- GI50 (PC-3): > 100 µM (inactive)
- GI50 (COLO 205): > 100 µM (inactive)
- GI50 (A498): > 100 µM (inactive)
- GI50 (SK-MEL-2): > 100 µM (inactive)
- GI50 (SN12C): > 100 µM (inactive)
- GI50 (MDA-MB-435): 54.5 µM (inactive)
- GI50 (BT-549): 79.1 µM (inactive)
- GI50 (HCT-15): > 100 µM
- GI50 (DU-145): > 100 µM (inactive)
